How the values were obtained:
P388 = assay: Cytotoxicity against P388 leukemia; format: functional, cell-based; conditions: Mus musculus
Tubulin = Tubulin (Bos taurus, UniProt Q6B856+Q862L2+Q862F3); assay: Drug concentration needed to produce a 50% reduction of bovine brain tubulin polymerization relative to the control
[1] = Inhibition of DNA topoisomerase II from rat liver measured as 50% reduction in the amount of minicircle DNA relative to the control
L1210 [2] = assay: The number of mice survived for 30 days at the dose of 10 (mg/kg/day); format: functional, Mus musculus
L1210 [3] = assay: Antitumor activity in vivo expressed as the percentage increase in life span at the dose of 10 (mg/kg/day); format: functional, Mus musculus

SMILES	IC50 (P388) [µM]	IC50 (Tubulin) [µM]	IC50 [1] [µM]	Survivors (L1210 [2])	ILS max (L1210 [3]) [%]
COc1cc([C@@H]2c3cc4c(cc3[C@@H](CCN(C)C3CCCCC3)C3COC(=O)[C@@H]32)OCO4)cc(OC)c1O.Cl (some centres not stated)	0.033	> 167	60.9	–	–
COc1cc([C@@H]2c3cc4c(cc3[C@@H](CCN3CCOCC3)C3COC(=O)[C@@H]32)OCO4)cc(OC)c1O.Cl (some centres not stated)	0.026	> 167	58.3	0	81
COc1cc([C@@H]2c3cc4c(cc3[C@@H](CC(=O)NCCN3CCOCC3)C3COC(=O)[C@@H]32)OCO4)cc(OC)c1O.Cl (some centres not stated)	0.22	> 100	–	–	–
COc1cc([C@@H]2c3cc4c(cc3[C@@H](CCN3CCC[C@@H]3CO)C3COC(=O)[C@@H]32)OCO4)cc(OC)c1O.Cl (some centres not stated)	0.063	> 62	112	–	–
COc1cc([C@@H]2c3cc4c(cc3[C@@H](CCN(C)N(C)c3ccccc3)C3COC(=O)[C@@H]32)OCO4)cc(OC)c1O (some centres not stated)	> 1	–	–	–	–
COc1cc([C@@H]2c3cc4c(cc3[C@@H](CC(=O)N3CCC(N5CCCCC5)CC3)C3COC(=O)[C@@H]32)OCO4)cc(OC)c1O.Cl (some centres not stated)	0.0084	> 100	266	–	–
COc1cc([C@@H]2c3cc4c(cc3[C@@H](CCN(C)Cc3ccccc3)C3COC(=O)[C@@H]32)OCO4)cc(OC)c1O.Cl (some centres not stated)	0.15	> 167	97.3	0	53
COc1cc([C@@H]2c3cc4c(cc3[C@@H](CC(=O)N(C)CCN(C)C)C3COC(=O)[C@@H]32)OCO4)cc(OC)c1O.Cl (some centres not stated)	0.032	> 100	252	–	–
COc1cc([C@@H]2c3cc4c(cc3[C@@H](CC(=O)NCCN3CCCCC3)C3COC(=O)[C@@H]32)OCO4)cc(OC)c1O.Cl (some centres not stated)	3	> 100	60.6	–	–
COc1cc([C@@H]2c3cc4c(cc3[C@@H](CC(=O)NCc3ccncc3)C3COC(=O)[C@@H]32)OCO4)cc(OC)c1O.Cl (some centres not stated)	2.2	> 100	–	–	–
COc1cc([C@@H]2c3cc4c(cc3[C@@H](CCN3CCCCC3)C3COC(=O)[C@@H]32)OCO4)cc(OC)c1O.Cl (some centres not stated)	0.012	> 167	67.7	–	–
COc1cc([C@@H]2c3cc4c(cc3[C@@H](CCN(C)C(CO)CO)C3COC(=O)[C@@H]32)OCO4)cc(OC)c1O.Cl (some centres not stated)	0.66	> 167	25.1	–	–
COCCN(C)CC[C@@H]1c2cc3c(cc2[C@@H](c2cc(OC)c(O)c(OC)c2)[C@H]2C(=O)OCC12)OCO3.Cl (some centres not stated)	0.16	> 100	75.8	–	–
COc1cc([C@@H]2c3cc4c(cc3[C@@H](CCCN(C)C)C3COC(=O)[C@@H]32)OCO4)cc(OC)c1O.Cl (some centres not stated)	0.012	> 167	73.5	–	–
